From patent publication US20240165023A1, “LIQUID PHARMACEUTICAL COMPOSITION” (Verona Pharma PLC, priority 2022, published 2024)

Columns and labels:
[1] = system: patients with moderate to severe COPD; test: Clinical study of nebulised ensifentrine 3 mg BID vs placebo, lung function (FEV1) in COPD; format: in vivo, human; details: 3 mg BID by nebuliser
Description: A clinical study was conducted to determine the efficacy of ensifentrine in treating COPD compared with placebo. Ensifentrine was administered by nebuliser at a dose of 3 mg twice daily (BID) for 24 weeks. The study was a multi-centre, randomized, double-blind, parallel-group, placebo-controlled trial with around 800 patients and 5:3 randomization.
The study population included patients aged 40-80 years with moderate to severe COPD (FEV1 30%-70% p.n., FEV1/forced vital capacity (FVC) ratio <0.7, with mMRC 2). The randomization stratified (a) the use of stable background maintenance LAMA or LABA therapy use (approx. 50%. yes or no) and (b) cigarette smoking (current or former). Inhaled corticosteroid (ICS) maintenance therapy was permitted in up to 20% of patients under certain provisions.
The primary endpoint of the study was change from baseline in average FEV1 area under the curve (AUC)0-12 h post-dose at week 12. Secondary endpoints of the study included: peak FEV1 over 4 hours post-dose at Week 12; morning trough FEV1 at Week 12; and other endpoints including moderate/severe COPD exacerbations frequency over 24 Weeks.
Baseline FEV1 is the mean of the two measurements taken before study medication on the day of first dosing, i.e. <40 minutes and just prior to dosing, both pre-dose on day 1.
Average FEV1 AUC0-12 h is defined as area under the curve over 12 hours of the FEV1, divided by 12 hours.
The investigational product and placebo were provided in 2.5 mL unit dose format in an ampule and administered via a nebuliser. The formulation of the investigational product (ensifentrine suspension formulation comprising crystalline polymorph Form I of ensifentrine) and placebo are shown in Table 1 below.

[2] = Plasma pharmacokinetics of ensifentrine after administration of the composition to healthy patients; format: in vivo; details: human, inhaled
[3] = Plasma pharmacokinetics of ensifentrine in COPD patients, popPK model simulation from trial samples; format: in vivo, human
Description: Plasma concentrations of ensifentrine for the assessment of pharmacokinetic (PK) parameters were measured using validated bioanalytical methods for ensifentrine in human plasma with LLOQ of 5 pg/mL.
Samples were taken on the following schedule: • Week 6: 1.0 h (±0.5 h) and 2.5 h (±0.5 h) (even sites) or 1.5 h and 4 h (±1 h) (odd sites); • Week 12: pre-dose (−0.5 h), 4 to 6 h, and 8 to 12 h (even sites) or 0.5 h (±0.25 h), 3 h (±0.5 h), and 6 to 8 h (odd sites); • Week 24: pre-dose (−0.5 h) and 1.5 h (even sites) or pre-dose (−0.5 h) and 1 h (±0.5 h) (odd sites)
Based on the samples taken during the trial, PK data was modelled for COPD patients with normal renal function. The final popPK model was used to predict parameter estimates in a virtual population of 50000 subjects (per covariate condition) for simulation of ensifentrine PK following nebulization of 3 mg in a population reflecting the population in the trial with normal renal function or mild renal impairment, or with moderate renal impairment. Uncertainty in fixed effects and covariance matrix parameters as well as residual variability were included in the simulations. The parameter uncertainty was accounted for by random resampling (without replacement) of 500 sets of parameter estimates from the bootstrap (750 replicates) in R to create 500 NONMEM simulation control streams. From each set of parameter estimates, the PK profiles for 100 subjects (for each covariate condition) were simulated with IV and IOV from the covariance matrix and residual error in NONMEM. Individual subject concentrations were simulated using NONMEM version 7.4.3, and PK parameters were calculated using R version 3.4.0.

[4] = human, plasma, inhaled, 3 mg, patients with COPD
[5] = nebulization of 3 mg, COPD patients with normal renal function, popPK simulation in virtual population

- Cmax [2]: 0.852 ng/mL
- AUC(0-inf) ([2]; read-out: mean AUC0-∞): 5.93 ng·h/mL
- systemic exposure in COPD patients compared with healthy patients ([3]; COPD patients vs healthy patients): lower systemic exposure
- AUC [3, 4]: 2.45 ng·h/mL
- Cmax [3, 4]: 0.522 ng/mL
- AUC0-tau, Median (90% prediction interval) [3, 5]: 2450 (882-7500) pg/mL * h
- Cmax, Median (90% prediction interval) [3, 5]: 522 (173-1330) pg/mL
- tmax, Median [3, 5]: 1.0 h
SMILES: COc1cc2c(cc1OC)-c1c/c(=N\c3c(C)cc(C)cc3C)n(CCNC(N)=O)c(=O)n1CC2 [Ensifentrine, N-(2-{(2E)-9,10-dimethoxy-4-oxo-2-[(2,4,6-trimethylphenyl)imino]-6,7-dihydro-2H-pyrimido[6,1-a]isoquinolin-3(4H)-yl}ethyl)urea]
- primary endpoint of average FEV1 (AUC)0-12 h at Week 12 ([1]; Week 12): met
- Average FEV1 (AUC)0-12 h post-dose at Week 12: Change from Baseline (CFB) Least Squares Mean ([1]; Week 12, n = 498, COPD patients): 48.2 mL
- Average FEV1 (AUC)0-12 h post-dose at Week 12: Placebo-corrected CFB LS Mean Diff. ([1]; Week 12, vs placebo (n = 291)): 93.9 mL
- improvement in lung function in subgroups of COPD patients ([1]; all subgroups): improvement in lung function with ensifentrine that was statistically significant
